This experiment has as its system MV-4-11 cells. In words: Gene expression microarray analysis (Affymetrix PrimeView) and GSEA. In kind it is cell-based, human. More on the design: RFU PODN (11730768_x_at) / Fold change /veh PODN (11730768_x_at) / RFU LINC00158 (11744669_a_at) / Fold change /veh LINC00158 (11744669_a_at) / RFU DUSP10 (11751237_a_at) / Fold change /veh DUSP10 (11751237_a_at) / RFU ID3 (11757404_x_at) / Fold change /veh ID3 (11757404_x_at) / RFU PLEKHG5 (11737974_s_at) / Fold change /veh PLEKHG5 (11737974_s_at) / RFU LRRC4B (11730491_at) / Fold change /veh LRRC4B (11730491_at) / RFU GIMAP4 (11747438_a_at) / Fold change /veh GIMAP4 (11747438_a_at) / RFU KRT8 (11758183_x_at) / Fold change /veh KRT8 (11758183_x_at) / RFU CNN1 (11734310_a_at) / Fold change /veh CNN1 (11734310_a_at) / RFU VPS37D (11726825_at) / Fold change /veh VPS37D (11726825_at) / RFU C10orf10 (11716522_x_at) / Fold change /veh C10orf10 (11716522_x_at) / RFU KIR2DL2 /// KIR2DL4 /// KIR2DL5A /// KIR2DL5B /// KIR2DS1 /// KIR2DS2 /// KIR2DS3 /// KIR2DS4 /// KIR3DL3 /// KIR3DL3 /// KIR3DS1 (11738374_at) / Fold change /veh KIR2DL2 /// KIR2DL4 /// KIR2DL5A /// KIR2DL5B /// KIR2DS1 /// KIR2DS2 /// KIR2DS3 /// KIR2DS4 /// KIR3DL3 /// KIR3DL3 /// KIR3DS1 (11738374_at) / RFU C1QL1 (11718748_at) / Fold change /veh C1QL1 (11718748_at) / RFU TMPRSS4 (11747572_a_at) / Fold change /veh TMPRSS4 (11747572_a_at) / RFU HAMP (11756126_x_at) / Fold change /veh HAMP (11756126_x_at) / RFU RNFT2 (11725882_a_at) / Fold change /veh RNFT2 (11725882_a_at) / RFU NR4A2 (11747474_a_at) / Fold change /veh NR4A2 (11747474_a_at) / RFU ABCC12 (11746883_a_at) / Fold change /veh ABCC12 (11746883_a_at) / RFU TMEM136 (11760407_x_at) / Fold change /veh TMEM136 (11760407_x_at) / RFU CLDN22 /// WWC2 (11732394_at) / Fold change /veh CLDN22 /// WWC2 (11732394_at) / RFU HLA-DPB1 (11760878_x_at) / Fold change /veh HLA-DPB1 (11760878_x_at) / RFU SPINT1 (11716480_a_at) / Fold change /veh SPINT1 (11716480_a_at) / RFU GAP43 (11754022_s_at) / Fold change /veh GAP43 (11754022_s_at) / RFU A4GNT (11735810_at) / Fold change /veh A4GNT (11735810_at) / RFU PRB3 (11715151_x_at) / Fold change /veh PRB3 (11715151_x_at) / RFU TUBB4B (11761932_at) / Fold change /veh TUBB4B (11761932_at) / RFU CAPN14 (11732068_a_at) / Fold change /veh CAPN14 (11732068_a_at) / RFU TMCC2 (11721928_a_at) / Fold change /veh TMCC2 (11721928_a_at) / RFU IRGQ (11745062_a_at) / Fold change /veh IRGQ (11745062_a_at) / RFU FAM174B (11720279_a_at) / Fold change /veh FAM174B (11720279_a_at) / RFU TMPRSS4 (11748680_a_at) / Fold change /veh TMPRSS4 (11748680_a_at) / RFU FAM212B (11763350_a_at) / Fold change /veh FAM212B (11763350_a_at) / RFU PLEKHG5 (11743358_a_at) / Fold change /veh PLEKHG5 (11743358_a_at) / RFU ZSCAN30 (11745921_a_at) / Fold change /veh ZSCAN30 (11745921_a_at) / RFU CMKLR1 (11741424_a_at) / Fold change /veh CMKLR1 (11741424_a_at) / RFU LOC101060620 /// MAPK8IP1 (11723275_at) / Fold change /veh LOC101060620 /// MAPK8IP1 (11723275_at) / RFU SPTSSB (11747773_x_at) / Fold change /veh SPTSSB (11747773_x_at) / RFU PRSS12 (11739890_at) / Fold change /veh PRSS12 (11739890_at) / RFU BIN1 (11741810_x_at) / Fold change /veh BIN1 (11741810_x_at) / RFU WNT11 (11732464_a_at) / Fold change /veh WNT11 (11732464_a_at) / RFU C10orf10 (11716521_a_at) / Fold change /veh C10orf10 (11716521_a_at) / RFU C5orf56 (11738089_at) / Fold change /veh C5orf56 (11738089_at) / RFU CYB561 (11721691_x_at) / Fold change /veh CYB561 (11721691_x_at) / RFU ANKRD19P (11752326_a_at) / Fold change /veh ANKRD19P (11752326_a_at) / RFU OR2T12 /// OR2T33 /// OR2T8 (11738714_s_at) / Fold change /veh OR2T12 /// OR2T33 /// OR2T8 (11738714_s_at) / RFU VCAN (11748164_a_at) / Fold change /veh VCAN (11748164_a_at) / RFU JSRP1 (11732532_at) / Fold change /veh JSRP1 (11732532_at) / RFU KRTAP10-11 (11738290_x_at) / Fold change /veh KRTAP10-11 (11738290_x_at) / RFU MYO3A (11730013_a_at) / Fold change /veh MYO3A (11730013_a_at) / RFU EBF3 (11725865_a_at) / Fold change /veh EBF3 (11725865_a_at) / RFU CAMK2N1 (11719241_x_at) / Fold change /veh CAMK2N1 (11719241_x_at) / RFU C5orf56 (11738088_a_at) / Fold change /veh C5orf56 (11738088_a_at) / RFU OLFML3 (11715873_a_at) / Fold change /veh OLFML3 (11715873_a_at) / RFU LOC100653217 /// NTM (11731650_a_at) / Fold change /veh LOC100653217 /// NTM (11731650_a_at) / RFU MAPK11 (11762145_a_at) / Fold change /veh MAPK11 (11762145_a_at) / RFU FIZ1 (11724087_x_at) / Fold change /veh FIZ1 (11724087_x_at) / RFU OASL (11726364_x_at) / Fold change /veh OASL (11726364_x_at) / RFU SOX15 (11748057_x_at) / Fold change /veh SOX15 (11748057_x_at) / RFU CD79A (11719716_a_at) / Fold change /veh CD79A (11719716_a_at) / RFU HIST1H1D (11736915_at) / Fold change /veh HIST1H1D (11736915_at) / RFU CASKIN2 (11723855_a_at) / Fold change /veh CASKIN2 (11723855_a_at) / RFU LOC730098 (11760151_x_at) / Fold change /veh LOC730098 (11760151_x_at) / RFU OR4N2 (11742367_at) / Fold change /veh OR4N2 (11742367_at) / RFU PRRT2 (11749266_a_at) / Fold change /veh PRRT2 (11749266_a_at) / RFU SNX32 (11753110_a_at) / Fold change /veh SNX32 (11753110_a_at) / RFU CDHR5 (11726645_a_at) / Fold change /veh CDHR5 (11726645_a_at) / RFU RCAN1 (11760418_a_at) / Fold change /veh RCAN1 (11760418_a_at) / RFU FAM167A (11723789_a_at) / Fold change /veh FAM167A (11723789_a_at) / RFU FAM26E (11764081_at) / Fold change /veh FAM26E (11764081_at) / RFU ISYNA1 (11749810_s_at) / Fold change /veh ISYNA1 (11749810_s_at) / RFU ACY1 (11761880_at) / Fold change /veh ACY1 (11761880_at) / RFU 11764098_at / Fold change /veh 11764098_at / RFU SAMD14 (11745864_x_at) / Fold change /veh SAMD14 (11745864_x_at) / RFU NPB (11741838_a_at) / Fold change /veh NPB (11741838_a_at) / RFU TMPRSS6 (11731388_a_at) / Fold change /veh TMPRSS6 (11731388_a_at) / RFU KRTAP10-2 (11738614_at) / Fold change /veh KRTAP10-2 (11738614_at) / RFU ARHGAP8 /// PRR5-ARHGAP8 (11727945_x_at) / Fold change /veh ARHGAP8 /// PRR5-ARHGAP8 (11727945_x_at) / RFU KRTAP5-7 /// NADSYN1 (11734609_at) / Fold change /veh KRTAP5-7 /// NADSYN1 (11734609_at) / RFU RASL12 (11751679_a_at) / Fold change /veh RASL12 (11751679_a_at) / RFU CDKN2B (11736163_a_at) / Fold change /veh CDKN2B (11736163_a_at) / RFU PRF1 (11729649_at) / Fold change /veh PRF1 (11729649_at) / RFU, ZNF638 /// ZNF638-IT1 / Fold change vs veh, ZNF638 /// ZNF638-IT1 / RFU, PANK3 / Fold change vs veh, PANK3 / RFU, SH3YL1 / Fold change vs veh, SH3YL1 / RFU, ZEB2 / Fold change vs veh, ZEB2 / RFU, NRIP1 / Fold change vs veh, NRIP1 / RFU, PTTG1IP / Fold change vs veh, PTTG1IP / RFU, CAPN2 / Fold change vs veh, CAPN2 / RFU, MED14 / Fold change vs veh, MED14 / RFU, SNORA58 / Fold change vs veh, SNORA58 / RFU, C1orf63 / Fold change vs veh, C1orf63 / RFU, LRRFIP1 / Fold change vs veh, LRRFIP1 / RFU, NDUFAF7 / Fold change vs veh, NDUFAF7 / RFU, SLC12A2 / Fold change vs veh, SLC12A2 / RFU, IBTK / Fold change vs veh, IBTK / RFU, ESF1 / Fold change vs veh, ESF1 / Fold change vs veh, TMEM50B / RFU, TAOK1 / Fold change vs veh, TAOK1 / RFU, ACBD3 / Fold change vs veh, ACBD3 / RFU, TMA16 / Fold change vs veh, TMA16 / RFU, RWDD3 / Fold change vs veh, RWDD3 / RFU, BCAT1 / Fold change vs veh, BCAT1 / RFU, EDEM3 / Fold change vs veh, EDEM3 / RFU, TMEM33 / Fold change vs veh, TMEM33 / RFU, WDR75 / Fold change vs veh, WDR75 / RFU, AHCTF1 / Fold change vs veh, AHCTF1 / RFU, TFRC / Fold change vs veh, TFRC / RFU, ZDHHC17 / Fold change vs veh, ZDHHC17 / RFU, NOM1 / Fold change vs veh, NOM1 / RFU, ARL8B / Fold change vs veh, ARL8B / RFU, ZBTB11 / Fold change vs veh, ZBTB11 / RFU, TAMM41 / Fold change vs veh, TAMM41 / RFU, KIAA1704 /// LOC100996395 / Fold change vs veh, KIAA1704 /// LOC100996395 / RFU, ING1 / Fold change vs veh, ING1 / RFU, TRMT61B / Fold change vs veh, TRMT61B / RFU, FUBP3 / Fold change vs veh, FUBP3 / RFU, TP53 / Fold change vs veh, TP53 / RFU, TNKS2 / Fold change vs veh, TNKS2 / RFU, ZFP14 / Fold change vs veh, ZFP14 / RFU, ACTR2 / Fold change vs veh, ACTR2 / RFU, PPP3R1 / Fold change vs veh, PPP3R1 / RFU, PIK3R1 / Fold change vs veh, PIK3R1 / RFU, HNRNPA1 / Fold change vs veh, HNRNPA1 / RFU, RNF170 / Fold change vs veh, RNF170 / RFU, ZNF28 / Fold change vs veh, ZNF28 / RFU, RNGTT / Fold change vs veh, RNGTT / RFU, OGT / Fold change vs veh, OGT / RFU, BRD1 / Fold change vs veh, BRD1 / RFU, MARS / Fold change vs veh, MARS / RFU, ZNF655 / Fold change vs veh, ZNF655 / RFU, FAHD1 / Fold change vs veh, FAHD1 / RFU, BDP1 / Fold change vs veh, BDP1 / RFU, LRRCC1 / Fold change vs veh, LRRCC1 / RFU, ARID1A / Fold change vs veh, ARID1A / RFU, ZNF146 / Fold change vs veh, ZNF146 / RFU, ZNF330 / Fold change vs veh, ZNF330 / RFU, GPN3 / Fold change vs veh, GPN3 / RFU, C9orf123 / Fold change vs veh, C9orf123 / RFU, N4BP2L2 / Fold change vs veh, N4BP2L2 / RFU, ARFIP1 / Fold change vs veh, ARFIP1 / RFU, FAM179B / Fold change vs veh, FAM179B / RFU, BCL10 / Fold change vs veh, BCL10 / RFU, UHRF1BP1L / Fold change vs veh, UHRF1BP1L / RFU, BET1 / Fold change vs veh, BET1 / RFU, CNOT2 / Fold change vs veh, CNOT2 / RFU, ZNF268 / Fold change vs veh, ZNF268 / Fold change vs veh, ZNF507 / RFU, DGCR2 / Fold change vs veh, DGCR2 / RFU, WDSUB1 / Fold change vs veh, WDSUB1 / Fold change vs veh, HSP90B1 /// MIR3652 / RFU, ADSS / Fold change vs veh, ADSS / RFU, GK / Fold change vs veh, GK / RFU, ZNF148 / Fold change vs veh, ZNF148 / RFU, TAF9 / Fold change vs veh, TAF9 / RFU, SLC1A5 / Fold change vs veh, SLC1A5 / RFU, SLMO2 / Fold change vs veh, SLMO2 / RFU, ABCC4 / Fold change vs veh, ABCC4 / RFU, LOC101060439 /// RAP1B / Fold change vs veh, LOC101060439 /// RAP1B / RFU, RFX7 / Fold change vs veh, RFX7 / RFU, GTPBP10 / Fold change vs veh, GTPBP10 / RFU, CNEP1R1 / Fold change vs veh, CNEP1R1 / RFU, BIVM-ERCC5 /// ERCC5 / Fold change vs veh, BIVM-ERCC5 /// ERCC5 / RFU, ILF3 / Fold change vs veh, ILF3 / RFU 11762660_at / Fold change /veh 11762660_at / RFU VCAN (11757783_s_at) / Fold change /veh VCAN (11757783_s_at) / RFU DDX43 (11728927_at) / Fold change /veh DDX43 (11728927_at) / RFU KRT8 (11758188_x_at) / Fold change /veh KRT8 (11758188_x_at) / RFU NKD1 (11759106_at) / Fold change /veh NKD1 (11759106_at) / RFU SRD5A1 (11742802_a_at) / Fold change /veh SRD5A1 (11742802_a_at) / RFU TPSAB1 /// TPSB2 (11721975_s_at) / Fold change /veh TPSAB1 /// TPSB2 (11721975_s_at) / RFU GSTM3 (11746129_a_at) / Fold change /veh GSTM3 (11746129_a_at) / RFU IL23R (11737362_x_at) / Fold change /veh IL23R (11737362_x_at) / RFU TMEM51 (11727254_a_at) / Fold change /veh TMEM51 (11727254_a_at) / RFU PIWIL2 (11732686_x_at) / Fold change /veh PIWIL2 (11732686_x_at) / RFU ORM1 (11744905_x_at) / Fold change /veh ORM1 (11744905_x_at) / RFU CCDC152 (11743942_at) / Fold change /veh CCDC152 (11743942_at) / RFU ECM1 (11717891_a_at) / Fold change /veh ECM1 (11717891_a_at) / RFU IL23R (11748794_a_at) / Fold change /veh IL23R (11748794_a_at) / RFU TNFAIP8L3 (11732012_x_at) / Fold change /veh TNFAIP8L3 (11732012_x_at) / RFU MBOAT4 (11741988_at) / Fold change /veh MBOAT4 (11741988_at) / RFU 11764193_at / Fold change /veh 11764193_at / RFU TMEM53 (11763286_at) / Fold change /veh TMEM53 (11763286_at) / RFU MAGEB2 (11727129_at) / Fold change /veh MAGEB2 (11727129_at) / RFU TMEM200A (11744735_a_at) / Fold change /veh TMEM200A (11744735_a_at) / RFU CCDC152 (11751479_a_at) / Fold change /veh CCDC152 (11751479_a_at) / RFU FAM211A (11726209_a_at) / Fold change /veh FAM211A (11726209_a_at) / RFU RGS16 (11746705_a_at) / Fold change /veh RGS16 (11746705_a_at) / RFU VCAN (11755009_s_at) / Fold change /veh VCAN (11755009_s_at) / RFU RHOB (11743442_s_at) / Fold change /veh RHOB (11743442_s_at) / RFU RGS16 (11720943_a_at) / Fold change /veh RGS16 (11720943_a_at) / RFU RGS16 (11720944_at) / Fold change /veh RGS16 (11720944_at) / RFU, VPS4B / Fold change vs veh, VPS4B / RFU, CREB1 / Fold change vs veh, CREB1 / RFU, DNAJC13 / Fold change vs veh, DNAJC13 / RFU, GNAQ / Fold change vs veh, GNAQ / RFU, CDK5R1 / Fold change vs veh, CDK5R1 / RFU, ZRANB3 / Fold change vs veh, ZRANB3 / RFU, CUL4A / Fold change vs veh, CUL4A / RFU, CCNY / Fold change vs veh, CCNY / RFU, UFL1 / Fold change vs veh, UFL1 / RFU, COG3 / Fold change vs veh, COG3 / RFU, DIAPH2 / Fold change vs veh, DIAPH2 / RFU, SKA2 / Fold change vs veh, SKA2 / RFU, AFF3 / Fold change vs veh, AFF3 / RFU, LMF1 / Fold change vs veh, LMF1 / RFU, IPO11 / Fold change vs veh, IPO11 / RFU, DFFB / Fold change vs veh, DFFB / RFU, FOXP1 / Fold change vs veh, FOXP1 / RFU, CARD8 / Fold change vs veh, CARD8 / RFU, STRN3 / Fold change vs veh, STRN3 / RFU, ADK / Fold change vs veh, ADK / RFU, RASSF2 / Fold change vs veh, RASSF2 / RFU, WIPF1 / Fold change vs veh, WIPF1 / RFU, LARP1B / Fold change vs veh, LARP1B / RFU, RASA1 / Fold change vs veh, RASA1 / RFU, RB1 / Fold change vs veh, RB1 / RFU, PPFIA1 / Fold change vs veh, PPFIA1 / RFU, MAT2A / Fold change vs veh, MAT2A / RFU, CCT5 / Fold change vs veh, CCT5 / RFU, WDR92 / Fold change vs veh, WDR92 / RFU, CUX1 / Fold change vs veh, CUX1 / RFU, TTC7A / Fold change vs veh, TTC7A / RFU, TMEM135 / Fold change vs veh, TMEM135 / RFU, DEPTOR / Fold change vs veh, DEPTOR / RFU, CPM / Fold change vs veh, CPM / RFU, DNAJB6 / Fold change vs veh, DNAJB6 / RFU, CACNA2D3 / Fold change vs veh, CACNA2D3 / RFU, DTX4 / Fold change vs veh, DTX4 / RFU, TFCP2 / Fold change vs veh, TFCP2 / RFU, GMCL1 /// GMCL1P1 / Fold change vs veh, GMCL1 /// GMCL1P1 / RFU, AEBP2 / Fold change vs veh, AEBP2 / RFU, SNHG1 /// SNORD22 /// SNORD25 /// SNORD26 /// SNORD27 /// SNORD28 /// SNORD29 /// SNORD31 / Fold change vs veh, SNHG1 /// SNORD22 /// SNORD25 /// SNORD26 /// SNORD27 /// SNORD28 /// SNORD29 /// SNORD31 / Fold change (Aza/veh), C12orf56 (ProbeSet 11735607_a_at) / Fold change (ACY-1035/veh), C12orf56 (ProbeSet 11735607_a_at) / Fold change (Aza/veh), FGFR1OP (ProbeSet 11751329_s_at) / Fold change (ACY-1035/veh), FGFR1OP (ProbeSet 11751329_s_at) / Fold change (Aza/veh), VPS36 (ProbeSet 11739960_a_at) / Fold change (ACY-1035/veh), VPS36 (ProbeSet 11739960_a_at) / RFU SYPL1 (11715823_x_at) / Fold change /veh SYPL1 (11715823_x_at) / RFU IGFBP7 (11715501_s_at) / Fold change /veh IGFBP7 (11715501_s_at) / RFU REEP3 (11722064_at) / Fold change /veh REEP3 (11722064_at) / RFU IGLL1 (11728026_x_at) / Fold change /veh IGLL1 (11728026_x_at): dose or concentration left out as unconfirmed. The settings on record: MV-4-11 cells, 48 hours.

Turning to `Nc1ncn([C@@H]2O[C@H](CO)[C@@H](O)[C@H]2O)c(=O)n1` [azacitidine], the “RFU PRSS12 (11739890_at)” value came to 6.78 RFU.

Source of the values: publication PMC5218480 (PLoS ONE, 2017).
